Test results: patent US6747164B2, “Use of amine compounds with improved biodegradability as adjuvants for pesticides and fertilizers” (priority 2000, dated 2004)
Several values for one entry are separate records, joined by “and”; a condition that tells them apart may be missing. Equal entries are not always repeated.

Legend:
Assay type in all cases: in vivo
[1] = tested on: Brassica napus; assay: Greenhouse test of glyphosate/adjuvant formulations with Brassica napus
[2] = tested on: Elymus repens; assay: Greenhouse test of glyphosate/adjuvant formulations with Elymus repens
[3] = tested on: Lolium rigidum; assay: Greenhouse test of glyphosate/adjuvant formulations with Lolium rigidum
[4] = Example 2, Table 4, glyphosate 0.75 kg a.e./ha, glyphosate/adjuvant 2:1, 4 weeks after spraying

## CCCCC(CC)COC1OC(CO)C(O)C(O)C1O (centres unmarked) [2-ethylhexyl glucoside, reference compound]
[1]; [4]
  Effect: 63%

## CCCCCCOC1OC(CO)C(O)C(O)C1O (centres unmarked) [Hexyl glucoside, reference compound]
[1]; [4]
  Effect: 57%

## Cocoamide of N,N-bishydroxyethyl-1,3-propylenediamine
[2]; Example 2, Table 3, glyphosate 0.15 kg a.e./ha, glyphosate/adjuvant 2:1, 5 weeks after spraying, 100% = totally dead plant
  Effect: 13%
[2]; Example 2, Table 3, glyphosate 0.15 kg a.e./ha, glyphosate/adjuvant 5:1, 5 weeks after spraying
  Effect: 8%
[2]; Example 2, Table 3, glyphosate 0.25 kg a.e./ha, glyphosate/adjuvant 2:1, 5 weeks after spraying
  Effect: 75%
[2]; Example 2, Table 3, glyphosate 0.25 kg a.e./ha, glyphosate/adjuvant 5:1, 5 weeks after spraying
  Effect: 65%
[2]; Example 2, Table 3, glyphosate 0.75 kg a.e./ha, glyphosate/adjuvant 2:1, 5 weeks after spraying
  Effect: 97%
[2]; Example 2, Table 3, glyphosate 0.75 kg a.e./ha, glyphosate/adjuvant 5:1, 5 weeks after spraying
  Effect: 95%
[2]; Example 3, Table 6, glyphosate 0.15 kg a.e./ha, glyphosate/adjuvant 2:1, 7 weeks after spraying
  Effect: 33%
[2]; Example 3, Table 6, glyphosate 0.25 kg a.e./ha, glyphosate/adjuvant 2:1, 7 weeks after spraying
  Effect: 47%
[2]; Example 3, Table 6, glyphosate 0.75 kg a.e./ha, glyphosate/adjuvant 2:1, 7 weeks after spraying
  Effect: 100%
[1]; Example 2, Table 4, glyphosate 0.15 kg a.e./ha, glyphosate/adjuvant 2:1, 4 weeks after spraying
  Effect: 40%
[1]; Example 2, Table 4, glyphosate 0.15 kg a.e./ha, glyphosate/adjuvant 5:1, 4 weeks after spraying
  Effect: 8%
[1]; Example 2, Table 4, glyphosate 0.25 kg a.e./ha, glyphosate/adjuvant 2:1, 4 weeks after spraying
  Effect: 70%
[1]; Example 2, Table 4, glyphosate 0.25 kg a.e./ha, glyphosate/adjuvant 5:1, 4 weeks after spraying
  Effect: 73%
[1]; [4]
  Effect: 98%
[1]; Example 2, Table 4, glyphosate 0.75 kg a.e./ha, glyphosate/adjuvant 5:1, 4 weeks after spraying
  Effect: 87%
[1]; Example 3, Table 7, glyphosate 0.15 kg a.e./ha, glyphosate/adjuvant 2:1, 4 weeks after spraying
  Effect: 45%
[1]; Example 3, Table 7, glyphosate 0.25 kg a.e./ha, glyphosate/adjuvant 2:1, 4 weeks after spraying
  Effect: 52%
[1]; Example 3, Table 7, glyphosate 0.75 kg a.e./ha, glyphosate/adjuvant 2:1, 4 weeks after spraying
  Effect: 90%
[3]; Example 2, Table 5, glyphosate 0.08 kg a.e./ha, glyphosate/adjuvant 2:1, 4 weeks after spraying
  Effect: 57%
[3]; Example 2, Table 5, glyphosate 0.08 kg a.e./ha, glyphosate/adjuvant 5:1, 4 weeks after spraying
  Effect: 23%
[3]; Example 2, Table 5, glyphosate 0.15 kg a.e./ha, glyphosate/adjuvant 2:1, 4 weeks after spraying
  Effect: 78%
[3]; Example 2, Table 5, glyphosate 0.15 kg a.e./ha, glyphosate/adjuvant 5:1, 4 weeks after spraying
  Effect: 72%
[3]; Example 2, Table 5, glyphosate 0.25 kg a.e./ha, glyphosate/adjuvant 2:1, 4 weeks after spraying
  Effect: 97%
[3]; Example 2, Table 5, glyphosate 0.25 kg a.e./ha, glyphosate/adjuvant 5:1, 4 weeks after spraying
  Effect: 88%
[3]; Example 3, Table 8, glyphosate 0.08 kg a.e./ha, glyphosate/adjuvant 2:1, 4 weeks after spraying
  Effect: 40%
[3]; Example 3, Table 8, glyphosate 0.15 kg a.e./ha, glyphosate/adjuvant 2:1, 4 weeks after spraying
  Effect: 58%
[3]; Example 3, Table 8, glyphosate 0.25 kg a.e./ha, glyphosate/adjuvant 2:1, 4 weeks after spraying
  Effect: 93%

## Monoester between polyethyleneglycol (2.5 EO)-monococo ether monocarboxymethyl ether and triethanolamine
[3]; in vivo
  Effect: 48% and 68% and 88%

## Monoester between polyethyleneglycol (4.5 EO)-monococo ether monocarboxymethyl ether and triethanolamine
[1]; in vivo
  Effect: 58% and 75% and 92%
[3]; in vivo
  Effect: 52% and 72% and 96%
